pEC50: −log10 of the molar value. Read-outs that look alike come from different tables or passages of the source.
Biological target: T1, Full-length glucokinase (beta cell isoform) (Homo sapiens, UniProt P35557)
T1 construct: Full-length glucokinase (beta cell isoform) was His-tagged at N-terminus; His tag (N); made in house
T1 sequence (P35557 1-465): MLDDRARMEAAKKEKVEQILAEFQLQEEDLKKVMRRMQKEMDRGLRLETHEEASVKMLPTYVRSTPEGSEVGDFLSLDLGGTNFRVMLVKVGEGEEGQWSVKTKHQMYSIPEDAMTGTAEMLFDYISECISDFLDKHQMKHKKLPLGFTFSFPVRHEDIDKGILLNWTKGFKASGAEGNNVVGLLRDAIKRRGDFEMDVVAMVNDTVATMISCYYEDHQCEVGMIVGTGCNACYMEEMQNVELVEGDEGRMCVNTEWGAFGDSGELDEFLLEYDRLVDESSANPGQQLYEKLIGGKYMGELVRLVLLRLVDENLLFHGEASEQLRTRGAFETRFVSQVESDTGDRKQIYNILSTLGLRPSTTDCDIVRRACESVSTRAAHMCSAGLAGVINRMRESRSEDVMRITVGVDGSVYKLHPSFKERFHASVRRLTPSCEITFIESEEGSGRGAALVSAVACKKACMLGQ
Test: Glucokinase biochemical assay (PK/LDH-coupled, NADH depletion at 340 nm): % activation, EC50, % max activation
Conditions: 5 mM glucose; for pEC50: read-out: EC50; for activation at 10 µM: read-out: % Activation at 10 uM; for Emax: read-out: % Max Activation
How it was run: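 N-terminally His-tagged full-length human beta-cell glucokinase, room temperature, 5 mM glucose, 1 mM ATP, PK/LDH-coupled with 0.7 mM NADH, 1% DMSO final. Initial velocity from the 200–900 s slope of A340 decline. % activation = (Va/Vo−1)×100, measured across compound concentrations.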

[1] = 10 uM compound, % Activation=(Va/Vo−1)×100

## CNC(=O)c1c(F)cc(Oc2cc(C(=O)Nc3ccn(C)n3)cc3c2CC(C)(C)O3)cc1F [Example 400, 4-(3,5-Difluoro-4-methylcarbamoyl-phenoxy)-2,2-dimethyl-2,3-dihydro-benzofuran-6-carboxylic acid(1-methyl-1H-pyrazol-3-yl)-amide]
1 mM ATP, room temperature
  pEC50: 6.85
Compound at 10 uM, 1 mM ATP, room temperature
  activation at 10 µM: 192%
Fitted maximum activation, 1 mM ATP
  Emax: 177%

## Cn1ccc(NC(=O)c2cc(Oc3ccc(C(=O)N4CCCCC4)c(F)c3)c3c(c2)OC(C)(C)C3)n1 [Example 61, 4-[3-Fluoro-4-(piperidine-1-carbonyl)-phenoxy]-2,2-dimethyl-2,3-dihydro-benzofuran-6-carboxylic acid(1-methyl-1H-pyrazol-3-yl)-amide]
[1]
  activation at 10 µM: 109%
GK activation
  pEC50: 7.00
Fitted maximum activation
  Emax: 107%

## COCC1Cc2c(OC(C)C)cc(C(=O)Nc3ccn(C)n3)cc2O1 (centres unmarked) [Example 216, 4-Isopropoxy-2-methoxymethyl-2,3-dihydro-benzofuran-6-carboxylic acid (1-methyl-1H-pyrazol-3-yl)-amide]
[1]
  activation at 10 µM: 13%

## COc1ccnc(NC(=O)c2cc(Oc3ccc(S(=O)(=O)N(C)C)c(F)c3)c3cc(C)oc3c2)c1 [Example 293, 4-{4-[(Dimethylamino)sulfonyl]-3-fluorophenoxy}-N-(4-methoxypyridin-2-yl)-2-methyl-1-benzofuran-6-carboxamide]
[1]
  activation at 10 µM: 46.9%
GK activation
  pEC50: 6.23
Fitted maximum activation
  Emax: 50%

## CC1(C)Cc2c(OCc3ccccc3)cc(C(=O)Nc3ccc(C(=O)O)cn3)cc2O1 [Example 77, 6-[(4-Benzyloxy-2,2-dimethyl-2,3-dihydro-benzofuran-6-carbonyl)-amino]-nicotinic acid]
[1]
  activation at 10 µM: 64.4%
GK activation
  pEC50: 6.82
Fitted maximum activation
  Emax: 66%

## Cn1ncc(NC(=O)c2cc(Oc3ccc(C(=O)N4CCC4)c(F)c3)c3c(c2)OC(C)(C)C3)n1 [Example 159, 4-[4-(Azetidine-1-carbonyl)-3-fluoro-phenoxy]-2,2-dimethyl-2,3-dihydro-benzofuran-6-carboxylic acid (2-methyl-2H-[1,2,3]triazol-4-yl)-amide]
[1]
  activation at 10 µM: 243%
GK activation
  pEC50: 6.82
Fitted maximum activation
  Emax: 260%

## Cc1cc2cc(C(=O)Nc3ccn(C)n3)cc(Oc3ccc(S(C)(=O)=O)cc3)c2s1 [Example 330, 2-Methyl-N-(1-methyl-1H-pyrazol-3-yl)-7-[4-(methylsulfonyl)-phenoxy]-1-benzothiophene-5-carboxamide]
[1]
  activation at 10 µM: 125%
GK activation
  pEC50: 5.77
Fitted maximum activation
  Emax: 162%

## CCc1cc2c(Oc3ccc(C(=O)N(C)C)cc3)cc(C(=O)Nc3ccc(C)cn3)cc2o1 [Example 276, 4-{4-[(Dimethylamino)carbonyl]phenoxy}-2-ethyl-N-(5-methylpyridin-2-yl)-1-benzofuran-6-carboxamide]
[1]
  activation at 10 µM: 20%

## Cn1ccc(NC(=O)c2cc(Oc3ccc(-c4ncon4)c(Cl)c3)c3c(c2)OC(C)(C)C3)n1 [Example 189, 4-(3-Chloro-4-[1,2,4]oxadiazol-3-yl-phenoxy)-2,2-dimethyl-2,3-dihydro-benzofuran-6-carboxylic acid (1-methyl-1H-pyrazol-3-yl)-amide]
[1]
  activation at 10 µM: 219%
GK activation
  pEC50: 6.06
Fitted maximum activation
  Emax: 245%

## Cn1ncc(NC(=O)c2cc(Oc3ccc(S(C)(=O)=O)cc3)c3c(c2)OC(C)(C)C3)n1 [Example 20, 4-(4-Methanesulfonyl-phenoxy)-2,2-dimethyl-2,3-dihydro-benzofuran-6-carbo-xylic acid(2-methyl-2H-[1,2,3]triazol-4-yl)-amide]
[1]
  activation at 10 µM: 230%
GK activation
  pEC50: 6.50
Fitted maximum activation
  Emax: 231%

## Cc1nnc(NC(=O)c2cc(Oc3ccc(S(C)(=O)=O)cc3)c3c(c2)OC(C)(C)C3)s1 [Example 24, 4-(4-Methanesulfonyl-phenoxy)-2,2-dimethyl-2,3-dihydro-benzofuran-6-carboxylic acid(5-methyl-[1,3,4]thiadiazol-2-yl)-amide]
[1]
  activation at 10 µM: 121%
GK activation
  pEC50: 5.83
Fitted maximum activation
  Emax: 140%

## Cc1ccnc(NC(=O)c2cc(Oc3ccc(S(C)(=O)=O)cc3)c3c(c2)OC(C)(C)C3)c1 [Example 23, 4-(4-Methanesulfonyl-phenoxy)-2,2-dimethyl-2,3-dihydro-benzofuran-6-carboxylic acid(4-methyl-pyridin-2-yl)-amide]
[1]
  activation at 10 µM: 46.1%
GK activation
  pEC50: 5.85
Fitted maximum activation
  Emax: 70%

## Cn1ccc(NC(=O)c2cc(OCCCC#N)c3c(c2)OC(C)(C)C3)n1 [Example 93, 4-(3-Cyano-propoxy)-2,2-dimethyl-2,3-dihydro-benzofuran-6-carboxylic acid (1-methyl-1H-pyrazol-3-yl)-amide]
[1]
  activation at 10 µM: 95.2%
GK activation
  pEC50: 5.01
Fitted maximum activation
  Emax: 136%

## Cc1ccc(NC(=O)c2cc(Oc3ccc(S(=O)(=O)N4CCC4)cc3)c3cc(C)oc3c2)nc1 [Example 297, 4-(4-(Azetidin-1-ylsulfonyl)phenoxy)-2-methyl-N-(5-methylpyridin-2-yl)-benzofuran-6-carboxamide]
[1]
  activation at 10 µM: 61.9%
GK activation
  pEC50: 6.89
Fitted maximum activation
  Emax: 68%

## CC1(C)Cc2c(Oc3ccc(S(C)(=O)=O)cc3)cc(C(=O)Nc3ccccn3)cc2O1 [Example 19, 4-(4-Methanesulfonyl-phenoxy)-2,2-dimethyl-2,3-dihydro-benzofuran-6-carbo-xylic acid pyridin-2-ylamide]
[1]
  activation at 10 µM: 139%
GK activation
  pEC50: 6.43
Fitted maximum activation
  Emax: 156%

## Cn1ccc(NC(=O)c2cc(Oc3ccc(C(=O)NCC(F)F)c(F)c3)c3c(c2)OC(C)(C)C3)n1 [Example 76, 4-[4-(2,2-Difluoro-ethylcarbamoyl)-3-fluoro-phenoxy]-2,2-dimethyl-2,3-dihydro-benzofuran-6-carboxylic acid(1-methyl-1H-pyrazol-3-yl)-amide]
[1]
  activation at 10 µM: 203%
GK activation
  pEC50: 6.33
Fitted maximum activation
  Emax: 206%

## Cn1ncc(NC(=O)c2cc(Oc3ccc(C(=O)N4CCC4)cc3)c3c(c2)OC(C)(C)C3)n1 [Example 160, 4-[4-(Azetidine-1-carbonyl)-phenoxy]-2,2-dimethyl-2,3-dihydro-benzofuran-6-carboxylic acid (2-methyl-2H-[1,2,3]triazol-4-yl)-amide]
[1]
  activation at 10 µM: 298%
GK activation
  pEC50: 6.89
Fitted maximum activation
  Emax: 250%

## CN(C)C(=O)c1ccc(Oc2cc(C(=O)Nc3ccn(C)n3)cc3sccc23)cc1F [Example 357, 4-(4-(Dimethylcarbamoyl)-3-fluorophenoxy)-N-(1-methyl-1H-pyrazol-3-yl)benzo[b]thiophene-6-carboxamide]
[1]
  activation at 10 µM: 32.7%

## Cc1cc2c(OC3CN(S(C)(=O)=O)C3)cc(C(=O)Nc3ccn(C)n3)cc2o1 [Example 327, 2-Methyl-N-(1-methyl-1H-pyrazol-3-yl)-4-{[1-(methylsulfonyl)-azetidin-3-yl]oxy}-1-benzofuran-6-carboxamide]
[1]
  activation at 10 µM: 108%
GK activation
  pEC50: < 5.00

## Cc1ccc(NC(=O)c2cc(Oc3ccc(S(C)(=O)=O)cc3)c3c(c2)OC(C)(C)C3)nc1 [Example 3, 4-(4-Methanesulfonyl-phenoxy)-2,2-dimethyl-2,3-dihydrobenzofuran-6-carboxylic acid(5-methyl-pyridin-2-yl)-amide]
[1]
  activation at 10 µM: 145%
GK activation
  pEC50: 6.46
Fitted maximum activation
  Emax: 140%

## Cn1ccc(NC(=O)c2cc(Oc3cccc(C(=O)N4CCC4)c3)c3c(c2)OC(C)(C)C3)n1 [Example 37, 4-[3-(Azetidine-1-carbonyl)-phenoxy]-2,2-dimethyl-2,3-dihydro-benzofuran-6-carboxylic acid(1-methyl-1H-pyrazol-3-yl)-amide]
[1]
  activation at 10 µM: 107%
GK activation
  pEC50: 6.05
Fitted maximum activation
  Emax: 143%

## Cc1ccc(C(=O)COc2cc(C(=O)Nc3ccn(C)n3)cc3c2CC(C)(C)O3)cn1 [Example 103, 2,2-Dimethyl-4-[2-(6-methyl-pyridin-3-yl)-2-oxo-ethoxy]-2,3-dihydro-benzofuran-6-carboxylic acid (1-methyl-1H-pyrazol-3-yl)-amide]
[1]
  activation at 10 µM: 78.9%
GK activation
  pEC50: 5.33
Fitted maximum activation
  Emax: 94%

## COCC1Cc2c(Oc3ccc(C(=O)N(C)C)c(F)c3)cc(C(=O)Nc3ccn(C)n3)cc2O1 (single isomer, unassigned; (-)) [Example 206, (−)-4-(4-Dimethylcarbamoyl-3-fluoro-phenoxy)-2-methoxymethyl-2,3-dihydro-benzofuran-6-carboxylic acid (1-methyl-1H-pyrazol-3-yl)-amide]
[1]
  % Activation at 10 uM: 91.3%
GK activation
  pEC50: 6.57
Fitted maximum activation
  % Max Activation: 102%

## CN(C)C(=O)c1ccc(Oc2cc(C(=O)Nc3cc[nH]n3)cc3c2CC(C)(C)O3)cc1 [Example 152, 4-(4-Dimethylcarbamoyl-phenoxy)-2,2-dimethyl-2,3-dihydro-benzofuran-6-carboxylic acid (1H-pyrazol-3-yl)-amide]
[1]
  activation at 10 µM: 90.7%
GK activation
  pEC50: 6.07
Fitted maximum activation
  Emax: 98%

From patent publication US8119624B2, “Fused phenyl amido heterocyclic compounds” (Pfizer Inc., priority 2006, dated 2012)
